Experimental data taken from PMC7097682, “Safety and Pharmacokinetics of CXCR4 Peptide Antagonist, LY2510924, in Combination with Durvalumab in Advanced Refractory Solid Tumors” (Journal of Pancreatic Cancer, 2020).
One block for each molecule: values may come before it. Where a SMILES comes first, the peptide text is derived from it. Bridges are numbered along the chain shown (N, C = ends). [ ]: non-standard residue; d: D form. 2Nal = N[C@@H](Cc1ccc2ccccc2c1)C(=O)O; Lys(iPr) = CC(C)NCCCC[C@H](N)C(=O)O

Columns and labels:
pancreatic cancer model = conditions: added to anti-PD-L1 monoclonal antibody regimen; cited from earlier work
cancer xenograft models = conditions: cell lines that express high levels of CXCR4; cited from earlier work
clinical = conditions: human, in vivo, sc, t1/2
Protocol: (§1) Blood samples were drawn from all patients for the assessment of LY2510924 in plasma and durvalumab concentrations in serum at prespecified time points. The PK of LY2510924 was assessed through intensive sampling, and the PK parameter estimates were calculated by standard noncompartmental methods of analysis. PK data for durvalumab were summarized by sampling time points, and a formal noncompartmental analysis was not conducted. Samples were analyzed using a validated liquid chromatography with tandem mass spectrometry. Summary statistics was tabulated for the PK parameters of LY2510924 and durvalumab by dose and study day.

patients = test system: patients; set-up: method as in PMID 24727324; conditions: 30 mg/day SC, monotherapy; cited from earlier work
[1] = LY2510924 pharmacokinetics in plasma, noncompartmental analysis; conditions: for AUC(0-inf) / Cmax: n = 3, geometric mean (CV%)
Protocol: as §1

[2] = test system: syngeneic squamous cell carcinoma model; conditions: single agent or combination; no reference printed for the sentence; cited from earlier work
[3] = Durvalumab serum concentrations by sampling time point; format: in vivo, human
Protocol: as §1

[4] = human, plasma, sc, Day 15, 20 mg/day SC
[5] = human, plasma, sc, Day 15, 30 mg/day SC

Molecule: c1cc(CN2CCCNCCNCCCNCC2)ccc1CN1CCCNCCNCCCNCC1 [AMD3100]
effect on T cells and antitumor efficacy of anti-PD-L1 monoclonal antibody (pancreatic cancer model): T cell redistribution and rapid accumulation near tumors, enhancing the antitumor efficacy

half-life (clinical): 5.11 h | PK variability on AUC ([1]; 20, 30 and 40 mg daily SC): 69% | PK variability on Cmax ([1]; 20, 30 and 40 mg daily SC): ~60% | mean apparent volume of distribution ([1]; 20, 30 and 40 mg daily SC, all nine patients): 59 L | CL/F ([1]; human, plasma, sc, 40 mg, mean apparent clearance, 20, 30 and 40 mg daily SC, all nine patients): 117 mL/min | AUC(0-inf) [1, 4]: 1960 ng·h/mL | AUC(0-inf) [1, 5]: 4320 ng·h/mL | Cmax ([1]; human, plasma, sc, Day 1, 20 mg/day SC, with durvalumab): 747 ng/mL | Cmax ([1]; human, plasma, sc, Day 1, 30 mg/day SC, with durvalumab): 682 ng/mL | Cmax ([1]; human, plasma, sc, Day 1, 40 mg/day SC, with durvalumab): 1860 ng/mL | Cmax [1, 4]: 367 ng/mL | Cmax [1, 5]: 847 ng/mL | Cmax ([1]; human, plasma, sc, Day 15, 40 mg/day SC): 1680 ng/mL
Molecule: CC(C)NCCCC[C@H](NC(=O)[C@H]1CCC(=O)N[C@@H](Cc2ccccc2)C(=O)N[C@@H](Cc2ccc(O)cc2)C(=O)N[C@@H](CCCCNC(C)C)C(=O)N[C@H](CCCNC(=N)N)C(=O)N[C@@H](Cc2ccc3ccccc3c2)C(=O)NCC(=O)N1)C(N)=O [LY2510924] (FY[Lys(iPr)][dR][2Nal]G[dE][Lys(iPr)]-NH2; lactam N-7)
tumor growth and metastasis (cancer xenograft models): dose-dependent inhibition | patients with dose-limiting toxicity (grade 3 increase in ANC >25,000 cells/μL for >5 days) (patients): two | antitumor activity [2]: minimal activity

Molecule: durvalumab: selective, high-affinity, human immunoglobulin G1 monoclonal antibody that blocks PD-L1 binding to PD-1 and CD80
peak concentration, geometric mean ([3]; week 0, 1500 mg Q4W IV infusion over 60 min, n = 8, %CV 33.2%): 418 µg/mL | trough concentration, geometric mean ([3]; week 4, 1500 mg Q4W IV, n = 8, %CV 50.3%): 106 µg/mL | trough concentration, geometric mean ([3]; week 8, 1500 mg Q4W IV, n = 4, %CV 58.4%): 133 µg/mL | peak concentration, geometric mean ([3]; week 12, 1500 mg Q4W IV, n = 4, %CV 30.8%): 549 µg/mL | trough concentration, geometric mean ([3]; week 12, 1500 mg Q4W IV, n = 4, %CV 46.8%): 126 µg/mL | trough concentration, geometric mean ([3]; week 20, 1500 mg Q4W IV, n = 1): 74.9 µg/mL
